Measurements published in ChEMBL document CHEMBL1137043, “Development of a polyvalent assay system for lead identification” (Bioorg Med Chem Lett, 2004).
*1 amine or outer side, *2 acyl side, *3 side chain or, on linkers, in order; H or OH if unused. Where a SMILES comes first, the peptide text is derived from it. [ ]: non-standard residue; d: D form. X1 = O=C(O)COc1ccc(C[C@H](N[*:1])C(=O)[*:2])cc1C(=O)O

What follows are compounds tested against T1, Tyrosine-protein phosphatase non-receptor type 1 (Homo sapiens, UniProt P18031) (assay: In vitro inhibitory concentration against Protein-tyrosine phosphatase 1B hydrolysis of p-nitrophenol phosphate).
T1 sequence (P18031 whole entry): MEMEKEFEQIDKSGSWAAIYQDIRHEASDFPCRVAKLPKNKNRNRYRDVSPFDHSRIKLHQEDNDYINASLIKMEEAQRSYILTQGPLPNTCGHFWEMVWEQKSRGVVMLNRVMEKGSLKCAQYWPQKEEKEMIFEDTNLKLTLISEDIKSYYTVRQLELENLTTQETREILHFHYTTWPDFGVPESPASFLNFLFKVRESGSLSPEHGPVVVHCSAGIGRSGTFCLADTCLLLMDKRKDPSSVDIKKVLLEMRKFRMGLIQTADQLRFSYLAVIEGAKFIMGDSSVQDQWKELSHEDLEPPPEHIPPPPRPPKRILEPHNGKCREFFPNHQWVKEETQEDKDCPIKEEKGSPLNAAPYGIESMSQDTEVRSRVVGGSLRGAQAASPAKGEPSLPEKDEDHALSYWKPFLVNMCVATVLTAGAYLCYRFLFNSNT

Row | Ki | Structure (SMILES)
1 | 18 µM | CC[C@H](C)[C@H](NC(=O)[C@H](Cc1ccc(OCC(=O)O)c(C(=O)O)c1)NC(=O)[C@H](CC(=O)O)NC(C)=O)C(=O)N[C@@H](CCCN=C(N)N)C(=O)NCC(=O)NCC(=O)NCC(N)=O (Ac-D[X1]IRGGG-NH2)
2 | 41 µM | CCC(C)[C@H](NC(=O)C(Cc1ccc(OCC(=O)O)c(C(=O)O)c1)NC(=O)[C@H](CC(=O)O)NC(C)=O)C(N)=O (stereo partly drawn)
3 | 11 µM | CC[C@@H](C)[C@H](NC(=O)C(Cc1ccc(OCC(=O)O)c(C(=O)O)c1)NC(=O)[C@H](CC(=O)O)NC(C)=O)C(=O)N[C@@H](CCCN=C(N)N)C(N)=O (stereo partly drawn)
